Test results from US10006913B2, “Fluorescent-HAP: a diagnostic stain for HBV cores in cells” (INDIANA UNIVERSITY RESEARCH AND TECHNOLOGY CORPORATION, priority 2013, dated 2018).

Columns and labels:
HBV core protein (Cp) = HBV core protein (Cp) (Hepatitis B virus genotype D subtype ayw, UniProt P03146); assay: HBV core protein (Cp) assembly rate, assembly induced by NaCl (FIG. 1); assay type: biochemical; details: 5 μM Cp, assembly induced with 150 mM NaCl, increasing concentration of stain
Protocol: In this experiment, 5 μM Cp was incubated with or without FL-HAPAlexaFluor® 488 (Compound 5) prior to inducing assembly by addition of 150 mM NaCl.
(§1) FL-HAPAlexaFluor® 488 (Compound 5) retains several critical properties of HAP molecules. […] Most importantly, FL-HAPAlexaFluor® 488 (Compound 5) binds pre-assembled cores with high affinity.

HBV capsid / Cp dimer = HBV capsid / Cp dimer (Hepatitis B virus genotype D subtype ayw, UniProt P03146); assay: Size exclusion chromatography (Superose 6) of Cp assembly reactions (FIG. 2); assay type: binding
Sequence of HBV capsid / Cp dimer (P03146 whole entry): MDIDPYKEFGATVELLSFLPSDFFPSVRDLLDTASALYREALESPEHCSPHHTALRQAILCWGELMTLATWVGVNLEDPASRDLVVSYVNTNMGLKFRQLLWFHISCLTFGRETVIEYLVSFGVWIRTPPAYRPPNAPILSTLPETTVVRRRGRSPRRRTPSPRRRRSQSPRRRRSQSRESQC
Protocol: In this experiment, 5 μM Cp was mixed with FL-HAPAlexaFluor® 488 (Compound 5) and then induced to assemble with 150 mM NaCl. Reactions were resolved on a Superose 6 column after 24 hours. Capsid elutes at 9.5 ml, aggregates at 8 ml, and Cp dimer at 18 ml.
as §1

HBV capsids = HBV capsids (Hepatitis B virus genotype D subtype ayw, UniProt P03146); assay: Staining of pre-assembled HBV capsids, sucrose gradient and agarose gel electrophoresis (FIG. 3); assay type: binding
Sequence of HBV capsids (P03146 whole entry): as above
Protocol: Shown at left: Capsids stained with FL-HAPAlexaFluor® 488 (Compound 5) were separated on a sucrose gradient. […] Shown at right: Capsids, at the listed concentration, were stained with 25 nM FL-HAPAlexaFluor® 488 (Compound 5) prior to electrophoresis.
as §1

[1] = system: HepG2 cells expressing RNA-filled HBV cores; assay: Fluorescence microscopy of stained HBV-producing cells (FIG. 4); assay type: cell-based
Description: (§2) Various forms of FL-HAP may be synthesized thereby varying the resulting solubility properties of the fluorescent stain. The more soluble forms are particularly useful for observing HBV cores in solution or serum; they may also be useful for lightly staining intracellular HBV cores. The ability of the illustrative FL-HAP compound, FL-HAPAlexaFluor® 488 (Compound 5), to cross cell membranes and label HBV-expressing cells and, specifically, to label concentrations of HBV cores in those cells, is shown in FIG. 4. […] The more hydrophobic forms of FL-HAP (e.g., Compound 6 and Compound 7) are particularly useful for rapid staining of tissue samples.

control HepG2 cells = assay: Fluorescence microscopy of stained control cells (FIG. 4); assay type: cell-based; details: camera on high gain
Description: as §2

capsid protein of HBV = capsid protein of HBV (Hepatitis B virus genotype D subtype ayw, UniProt P03146); assay: Binding to the capsid protein of HBV (general statement)
Sequence of capsid protein of HBV (P03146 whole entry): as above

Sequence of HBV core protein (Cp) (P03146 whole entry): as above

Row | Compound | effect on core protein assembly rate (HBV core protein (Cp)) | extent of assembly and size of complexes (HBV capsid / Cp dimer; 5 μM Cp, 150 mM NaCl, Superose 6 column after 24 hours, increasing stain) | free HBV dimer remaining (HBV capsid / Cp dimer; SEC, as stain is added) | formation of aberrant particles (HBV capsid / Cp dimer; light scattering in excess of free capsid, products run faster on SEC than capsid) | copies bound per HBV capsid (HBV capsid / Cp dimer; ratio of protein to fluorophore absorbance across SEC peaks) | species bound by the stain (capsid vs dimer) (HBV capsid / Cp dimer; visualized at 495 nm) | dissociation from HBV capsids (HBV capsids) | affinity for pre-assembled HBV cores (HBV capsids; SEC, sucrose gradient, agarose gel) | binding to capsids on electrophoresis (HBV capsids; capsids stained with 25 nM stain prior to electrophoresis, non-equilibrium conditions) | fluorescent labeling of cells ([1]; HepG2 cells expressing RNA-filled HBV cores) | co-localization of fluorescence with Cp-specific antibodies ([1]; data not shown) | fluorescent labeling of cells (control HepG2 cells) | binding to the capsid protein of HBV (capsid protein of HBV)
1 | COC(=O)C1=C(CN2CCN(C(=O)CCCNC(=O)c3ccc(-c4c5ccc(=N)c(S(=O)(=O)O)c-5oc5c(S(=O)(=O)O)c(N)ccc45)c(C(=O)O)c3)CC2)NC(c2ccccn2)=NC1c1ccc(F)cc1Cl (stereo not drawn) [Compound 5] | accelerates core protein assembly | more assembly of progressively larger complexes | progressively less free HBV dimer | leads to formation of aberrant particles | approximately 120 copies | only assembled Cp (i.e., capsid) is bound | dissociates slowly | high affinity | binding was evident at nM concentrations | numerous puncta and aggregates of puncta are seen | co-localize with Cp-specific antibodies | no green puncta are seen | specific binding
2 | COC(=O)C1=C(CN2CCN(C(=O)CCCNC(=S)Nc3ccc(-c4c5ccc(=O)cc-5oc5cc(O)ccc45)c(C(=O)O)c3)CC2)NC(c2ccccn2)=NC1c1ccc(F)cc1Cl (stereo not drawn) [Compound 6] |  |  |  |  |  |  |  |  |  |  |  |  | specific binding
3 | COC(=O)C1=C(CN2CCN(C(=O)CCCNC(=O)CCC3=[N+]4C(=Cc5c(C)cc(C)n5[B-]4(F)F)C=C3)CC2)NC(c2ccccn2)=NC1c1ccc(F)cc1Cl (stereo not drawn) [Compound 7] |  |  |  |  |  |  |  |  |  |  |  |  | specific binding
